Consider 18 molecules from paper PMC9143003, “Neutrophil Immunomodulatory Activity of Farnesene, a Component of Artemisia dracunculus Essential Oils” (Pharmaceuticals, 2022).

Data set [1] concerns WKYMVM-stimulated human neutrophils (FPR2 agonist WKYMVM). Put plainly: Inhibition of WKYMVM-induced [Ca2+]i. It counts as cell-based. The conditions noted are these: pure compounds, 10 min pretreatment, 5 nM WKYMVM, read-out: Inhibition of [Ca^2+]i WKYMVM-Induced IC50. The source says: (§1) We obtained human neutrophils using blood collected from healthy donors. Blood collection was approved by the Institutional Review Board at Montana State University (Protocol #MQ041017). Neutrophils were isolated as described previously. The isolated neutrophils were resuspended in HBSS^–. Neutrophil preparations were routinely >95% pure and >98% viable, as determined by light microscopy and trypan blue exclusion, respectively.
(§2) Changes in intracellular Ca^2+ concentrations ([Ca^2+]i) were monitored with a FlexStation 3 (Molecular Devices, Sunnyvale, CA, USA). For these assays, neutrophils were loaded with 1.25 μg/mL Fluo-4AM and incubated in the dark at 37 °C for 30 min. The cells were then washed with HBSS^-. The dye-loaded cells were resuspended in HBSS^+ and pipetted into the wells of black microtiter plates at 2 × 10^5 cells/well. To measure the direct effects of samples on [Ca^2+]i, the test samples were added to the wells (final concentration of DMSO was 1%), and fluorescence was monitored (λex = 485 nm, λem = 538 nm). Changes in fluorescence were monitored every 5 s at room temperature for 240 s. To evaluate the inhibitory effects of the test samples, the samples were added to the wells and incubated for 10 min, with the subsequent addition of 5 nM fMLF, 5 nM WKYMVM, or 25 nM IL-8. Responses were normalized to the response induced by control 5 nM fMLF, 5 nM WKYMVM, or 25 nM IL-8 alone without pretreatment. These responses were assigned as 100%. To calculate median effective concentrations (EC50 or IC50), we used curve fitting (at least five or six points) and nonlinear regression analysis of the dose–response curves. Curve fitting was performed with Prism 9 (GraphPad Software, Inc., San Diego, CA, USA).

Data set [2] has as its system human neutrophils. Put plainly: Ca2+ mobilization assay, direct activation of [Ca2+]i. It counts as cell-based. The conditions noted are these: pure compounds; for EC50: human neutrophils, mean ± SD of three experiments, read-out: Activation of [Ca^2+]i EC50; for Effect on human neutrophil Ca^2+ flux (in words): direct effect.
Excerpt: as §1, §2
On the technique in general: Calcium assays in cells follow changes in intracellular calcium, usually with a dye or a luminescent sensor.

The subject of data set [3] is human neutrophils. Put plainly: Cytotoxicity assay (CellTiter-Glo), neutrophils. The conditions noted are these: pure compounds, 90 min incubation, no cytotoxicity = IC50 > 55 µM. The protocol: We analyze cytotoxicity in human neutrophils or THP-1 monocytic cells. Cytotoxicity was analyzed using a CellTiter-Glo Luminescent Cell Viability Assay Kit (Promega, Madison, WI, USA). Briefly, the cells were incubated (10^4 cells/well) with the indicated concentrations of essential oil or compound for 90 min (for neutrophils) or 24 h (for THP-1 cells) at 37 °C/5% CO2. After incubation, we added substrate. The samples were analyzed using a Fluoroscan Ascent FL microplate reader.

Data set [4] deals with fMLF-stimulated human neutrophils (FPR1 agonist fMLF). Put plainly: Inhibition of fMLF-induced [Ca2+]i. The settings on record: pure compounds, 10 min pretreatment, 5 nM fMLF, read-out: Inhibition of [Ca^2+]i fMLF-Induced IC50. It counts as cell-based.
Excerpt: as §1, §2

Data set [5] concerns human neutrophils. Put plainly: Chemotaxis assay toward fMLF (ChemoTx chambers). It counts as cell-based. The settings on record: pure compounds, 30 min pretreatment, 1 nM fMLF; for IC50: read-out: Inhibition of fMLF-induced neutrophil chemotaxis IC50.
Excerpt: as §1
To evaluate effects of samples on neutrophil migration, we resuspended neutrophils in HBSS^+ containing 2% (v/v) heat-inactivated FBS (2 × 10^6 cells/mL). We analyzed chemotaxis using 96-well ChemoTx chambers (Neuroprobe, Gaithersburg, MD). The neutrophils were first preincubated with the indicated concentrations of test samples at room temperature for 30 min. The pretreated cells were then pipetted into the chamber upper wells (4 × 10^4 cells/well). The lower wells contained 30 µL of HBSS^+ with 2% (v/v) heat-inactivated FBS, the indicated test samples or control 1% DMSO, and 1 nM fMLF as the chemoattractant. Three lower wells were reserved for background controls (DMSO treated cells in the upper wells and DMSO without fMLF in the lower wells). We allowed the cells to migrate through the polycarbonate membrane filter for 60 min at 37 °C/5% CO2. We determined the number of migrated cells by measuring ATP in lysates of transmigrated cells and comparing this to a standard curve obtained with known neutrophil numbers, as described previously. Calculation of median effective concentrations (IC50) was performed by nonlinear regression analysis of the dose-response curves.

For data set [6], the system named is human THP-1 monocytic cells. Put plainly: Cytotoxicity assay (CellTiter-Glo), THP-1. Format: cell-based. How it is done:
Human THP-1 monocytic cells obtained from ATCC (Manassas, VA, USA) were cultured in RPMI 1640 medium (Mediatech Inc., Herndon, VA, USA) supplemented with 10% (v/v) FBS, 100 μg/mL streptomycin, and 100 U/mL penicillin. […] After incubation, we added substrate.
Background: Cellular ATP, detected with luciferase, serves as a proxy for viable cell number.

In data set [7] the test system is human neutrophils. Set-up: method as in PMID 27586050, PMID 25959257. The settings on record: previous analysis; cited from earlier work.
The next data set relates to FPR1. More on the design: method as in PMID 16972170, PMID 11211928, PMID 11853704. The conditions noted are these: cited from earlier work.
Data set [8] relates to IL-8-stimulated human neutrophils. Put plainly: Inhibition of IL-8-induced [Ca2+]i. It counts as cell-based. The settings on record: 10 min pretreatment, 25 nM human IL-8; read-out: Inhibition of IL-8 induced neutrophil [Ca^2+]i IC50.
Excerpt: as §1
as §2, with “Responses were normalized to the response induced by control 5 nM fMLF, 5 nM WKYMVM, or 25 nM IL-8 alone without pretreatment. These responses were assigned as 100%. To calculate median effective concentrations (EC50 or IC50), we used curve fitting (at least five or six points) and nonlinear regression analysis of the dose–response curves. Curve fitting was performed with Prism 9 (GraphPad Software, Inc., San Diego, CA, USA).” left out

Read-outs that look alike come from different tables or passages of the source. Some results are limits rather than exact numbers.

As to `CC12CCC(CC1)C(C)(C)O2` [1,8-Cineole], the IC50 (as a rule, the concentration that gives 50% inhibition) in [1] (Homo sapiens, Neutrophil) was greater than 55 µM; in [4] (Homo sapiens, Neutrophil), greater than 55 µM. For the same molecule, the EC50 (as a rule, the concentration that produces a half-maximal response) in the data set on human neutrophils [2] (Neutrophil) was greater than 55 µM. In addition, in the data set with human neutrophils [2], the “Effect on human neutrophil Ca^2+ flux (in words)” value is listed as “did not affect human neutrophil Ca^2+ flux”. In addition, the Cytotoxicity entry in the data set with human neutrophils [3] is reported as “Nontoxic”.

As to `CC12CCC(CC1=O)C2(C)C` (stereo not drawn) [(+)-Camphor], the concentration for half-maximal inhibition (IC50) in data set [1] and in data set [4] was greater than 55 µM each time. For the same molecule, in the data set with human neutrophils [2], the “Effect on human neutrophil Ca^2+ flux (in words)” value was “did not affect human neutrophil Ca^2+ flux”. In addition, in the data set with human neutrophils [2], the EC50 was greater than 55 µM.

With `CC1(C)[C@H]2CC[C@]1(C)C(=O)C2` [(−)-Camphor], the IC50 in data set [1] (Homo sapiens, Neutrophil) was greater than 55 µM; in data set [4] (Homo sapiens, Neutrophil), greater than 55 µM. Also, in the data set on human neutrophils [2] (Neutrophil), the EC50 was greater than 55 µM. For the same molecule, in the data set with human neutrophils [2], the “Effect on human neutrophil Ca^2+ flux (in words)” value was “did not affect human neutrophil Ca^2+ flux”. Besides, the Cytotoxicity result with human neutrophils [3] was “Nontoxic”.

Consider `CC1=CC(=O)C(C(C)C)CC1` (centres unmarked) [Piperitone], for which the IC50 is greater than 55 µM in [1] (Homo sapiens, Neutrophil) and greater than 55 µM in data set [4] (Homo sapiens, Neutrophil). Besides, the EC50 in the data set with human neutrophils [2] (Neutrophil) is greater than 55 µM. Besides, the “Effect on human neutrophil Ca^2+ flux (in words)” value with human neutrophils [2] was “did not affect human neutrophil Ca^2+ flux”. The Cytotoxicity result in the data set with human neutrophils [3] is recorded as “Nontoxic”.

For the molecule `COc1cc(O)c(C(C)=O)c(OC)c1` [Xanthoxylin], the IC50 amounted to 52.7 ± 11.2 µM in [1] (Homo sapiens, Neutrophil) and 27.2 ± 6.6 µM in data set [4] (Homo sapiens, Neutrophil). In the data set with human neutrophils [2] (Neutrophil), the EC50 was determined as 53.3 ± 5 µM. In addition, in the data set with human neutrophils [2], the “Effect on human neutrophil Ca^2+ flux (in words)” value is “weak activators”. Besides, in the data set on human neutrophils [5], the “Inhibition of fMLF-induced neutrophil chemotaxis IC50” value was “did not affect this response”. Moreover, the Cytotoxicity result in the data set with human neutrophils [3] is “Nontoxic”. Besides, the “Viability of human THP-1 monocytic cells” value in data set [6] (24 h incubation) was “did not affect the viability”.

For `C=C1C2CCC(C2)C1(C)C` (centres unmarked) [camphene], in the data set on human neutrophils [7], the “Effect on human neutrophil [Ca^2+]i (in words)” value (“Effect … [Ca^2+]i (in words)” for short) is reported as “no effect”.

With `C[C@H](CCC(=O)O)[C@H]1CC[C@H]2[C@@H]3[C@H](O)C[C@@H]4C[C@H](O)CC[C@]4(C)[C@H]3CC[C@]12C` [chenodeoxycholic acid], in the data set on FPR1, the “Concentrations at which FPR1 is antagonized” value is recorded as greater than 100 µM.

Consider `C[C@H](CCC(=O)O)[C@H]1CC[C@H]2[C@@H]3CC[C@@H]4C[C@H](O)CC[C@]4(C)[C@H]3C[C@H](O)[C@]12C` [deoxycholic acid], for which, in the data set with FPR1, the “Concentrations at which FPR1 is antagonized” value was greater than 100 µM.

Regarding `C=CC(C)(O)CCC=C(C)C` (centres unmarked) [linalool], the “Effect … [Ca^2+]i (in words)” value in the data set on human neutrophils [7] is “no effect”.

Regarding `C=CCc1ccc(OC)cc1` [methyl chavicol], the “Effect … [Ca^2+]i (in words)” value in the data set on human neutrophils [7] was “no effect”.

`C=CCc1ccc(OC)c(OC)c1` [methyl eugenol]: in the data set on human neutrophils [7], the “Effect … [Ca^2+]i (in words)” value was “no effect”.

Consider `Cc1ccc(C(C)(C)O)cc1` [p-cymen-8-ol], for which, in the data set with human neutrophils [7], the “Effect … [Ca^2+]i (in words)” value is reported as “no effect”.

Consider `Cc1ccc(C(C)C)cc1` [p-cymene], for which the “Effect … [Ca^2+]i (in words)” value in the data set with human neutrophils [7] is on record as “no effect”.

With `CC1=CCC(O)(C(C)C)CC1` (centres unmarked) [terpinen-4-ol], the “Effect … [Ca^2+]i (in words)” value in the data set with human neutrophils [7] is listed as “no effect”.

As to `CC1=CCC(=C(C)C)CC1` [terpinolene], the “Effect … [Ca^2+]i (in words)” value in the data set on human neutrophils [7] is “no effect”.

As for `CC1=CCC2CC1C2(C)C` (stereo not drawn) [α-pinene], in the data set on human neutrophils [7], the “Effect … [Ca^2+]i (in words)” value is recorded as “no effect”.

For the molecule (±)-Bornyl acetate, the half-maximal inhibitory concentration (IC50) is 19.1 ± 0.1 µM in [1], 11.9 ± 1.9 µM in the data set on human neutrophils [5] and 42.6 ± 9.7 µM in data set [4]. The “Effect on human neutrophil Ca^2+ flux (in words)” value in the data set on human neutrophils [2] is “weak activators”. Further, the EC50 in the data set with human neutrophils [2] is 50.1 ± 11.5 µM. Moreover, the “Viability of human THP-1 monocytic cells” value in data set [6] is “did not affect the viability”.

Take Farnesene: the IC50 in [1] amounted to 1.4 ± 0.5 µM; in [8] it was 2.6 µM; in the data set on human neutrophils [5], 3.3 ± 1.4 µM; in data set [4], 1.1 ± 0.2 µM. In the data set with human neutrophils [2], the “Effect on human neutrophil Ca^2+ flux (in words)” value is given as “weak activators”. In addition, the EC50 in the data set on human neutrophils [2] was determined as 28.5 ± 2.6 µM. Further, the “Viability of human THP-1 monocytic cells” value in data set [6] was “did not affect the viability”.
